Drawing on PubChem BioAssay AID1745844 (Carcinogenic Potency Database (CPDB), 2022), this text covers TD50 and carcinogen call for 7 molecules.

Activity calls are given as the source filed them. The rule behind the calls is not given here.

The data set concerns rodent lifetime carcinogenesis bioassay, tumor incidence TD50. The data set can be described thus: chronic cancer bioassays in animals – CPDB, compiled studies (AID 1745844).

With `C=C(Cl)Cl`, the TD50 (mouse, strain B6C3F1, females, by gavage, site: all sites, lesion: leukemia + lymphoma, dosed 104 weeks, study length 104 weeks) is 3.9 mg/kg/day (inactive); the TD50 (mouse, strain B6C3F1, females, by gavage, site: all sites, lesion: lymphoma, dosed 104 weeks, study length 104 weeks) was 4.02 mg/kg/day; the TD50 (mouse, strain B6C3F1, females, by gavage, site: any site (literature study), lesion: several types, types named in the paper, dosed 104 weeks, study length 104 weeks) was 2.09 mg/kg/day; the TD50 (mouse, strain B6C3F1, females, by gavage, site: lung, lesion: alveolar/bronchiolar adenoma + alveolar/bronchiolar carcinoma, dosed 104 weeks, study length 104 weeks) is 66.7 mg/kg/day; the TD50 (mouse, strain B6C3F1, males, by gavage, site: any site (literature study), lesion: several types, types named in the paper, dosed 104 weeks, study length 104 weeks) was 34.8 mg/kg/day (inactive); the TD50 (mouse, strain B6C3F1, males, by gavage, site: liver, lesion: hepatocellular adenoma + hepatocellular carcinoma + neoplastic nodule, dosed 104 weeks, study length 104 weeks) was 133 mg/kg/day. For the same molecule, the TD50 reads like this: (mouse, strain B6C3F1, males, by gavage, site: lung, lesion: alveolar/bronchiolar adenoma + alveolar/bronchiolar carcinoma, dosed 104 weeks, study length 104 weeks) 60.4 mg/kg/day; (mouse, strain Charles River CD1, females, inhaled, site: liver, lesion: hemangiosarcoma, dosed 52 weeks, study length 52 weeks) 170 mg/kg/day; (mouse, strain Charles River CD1, females, inhaled, site: liver, lesion: hepatoma, dosed 52 weeks, study length 52 weeks) 170 mg/kg/day; (mouse, strain Swiss, females, inhaled, site: any site (literature study), lesion: malignant tumor, dosed 52 weeks, study length 126 weeks) 86.1 mg/kg/day; (mouse, strain Swiss, females, inhaled, site: any site (literature study), lesion: several types, types named in the paper, dosed 52 weeks, study length 126 weeks) 30.9 mg/kg/day; (mouse, strain Swiss, females, inhaled, site: liver, lesion: hepatoma, dosed 52 weeks, study length 126 weeks) 858 mg/kg/day. In addition, the TD50 was 124 mg/kg/day (mouse, strain Swiss, females, inhaled, site: lung, lesion: several types, types named in the paper, dosed 52 weeks, study length 126 weeks); 80.9 mg/kg/day (mouse, strain Swiss, females, inhaled, site: mammary gland, lesion: several types, types named in the paper, dosed 52 weeks, study length 126 weeks); 50.3 mg/kg/day (mouse, strain Swiss, males, inhaled, site: any site (literature study), lesion: malignant tumor, dosed 52 weeks, study length 126 weeks); 17.9 mg/kg/day (mouse, strain Swiss, males, inhaled, site: any site (literature study), lesion: several types, types named in the paper, dosed 52 weeks, study length 126 weeks); 22 mg/kg/day (mouse, strain Swiss, males, inhaled, site: kidney, lesion: adenocarcinoma, dosed 52 weeks, study length 126 weeks); 566 mg/kg/day (mouse, strain Swiss, males, inhaled, site: liver, lesion: angiosarcoma, dosed 52 weeks, study length 126 weeks). Besides, the TD50 was 59.9 mg/kg/day (mouse, strain Swiss, males, inhaled, site: lung, lesion: several types, types named in the paper, dosed 52 weeks, study length 126 weeks); 654 mg/kg/day (inactive) (rat, strain Sprague-Dawley Spartan, females, in drinking water, site: liver, lesion: hepatocellular carcinoma, dosed 104 weeks, study length 104 weeks); 414 mg/kg/day (inactive) (rat, strain Sprague-Dawley Spartan, females, in drinking water, site: liver, lesion: neoplastic nodule, dosed 104 weeks, study length 104 weeks); 679 mg/kg/day (inactive) (rat, strain Sprague-Dawley Spartan, females, in drinking water, site: mammary gland, lesion: fibroadenoma, dosed 104 weeks, study length 104 weeks); 49.8 mg/kg/day (inactive) (rat, strain Sprague-Dawley Spartan, females, inhaled, site: mammary gland, lesion: adenocarcinoma, dosed 78 weeks, study length 104 weeks); 16 mg/kg/day (inactive) (rat, strain Sprague-Dawley Spartan, females, inhaled, site: mammary gland, lesion: fibroadenoma, dosed 78 weeks, study length 104 weeks). Also, the TD50 (rat, strain Sprague-Dawley Spartan, males, in drinking water, site: liver, lesion: hepatocellular carcinoma, dosed 104 weeks, study length 104 weeks) was 22900 mg/kg/day (inactive); the TD50 (rat, strain Sprague-Dawley, females, by gavage, site: liver, lesion: angiosarcoma, dosed 52 weeks, study length 136 weeks) was 0.501 mg/kg/day; the TD50 (rat, strain Sprague-Dawley, females, inhaled, site: any site (literature study), lesion: several types, types named in the paper, dosed 104 weeks, study length 150 weeks) is 119 mg/kg/day; the TD50 (rat, strain Sprague-Dawley, females, inhaled, site: liver, lesion: several types, types named in the paper, dosed 104 weeks, study length 150 weeks) is 847 mg/kg/day; the TD50 (rat, strain Sprague-Dawley, males, by gavage, site: any site (literature study), lesion: several types, types named in the paper, dosed 52 weeks, study length 136 weeks) is 5.32 mg/kg/day. Also, the carcinogen call was “negative (inactive)” (mouse, strain Charles River CD1, females, inhaled, site: liver, lesion: hemangiosarcoma, dosed 26 weeks, study length 78 weeks); “negative (inactive)” (mouse, strain Charles River CD1, females, inhaled, site: liver, lesion: hepatocellular tumor, dosed 26 weeks, study length 78 weeks); “negative (inactive)” (mouse, strain Charles River CD1, females, inhaled, site: lung, lesion: alveolar/bronchiolar tumor, dosed 26 weeks, study length 78 weeks); “negative (inactive)” (mouse, strain Charles River CD1, males, inhaled, site: liver, lesion: hepatocellular tumor, dosed 26 weeks, study length 78 weeks); “negative (inactive)” (mouse, strain Charles River CD1, males, inhaled, site: lung, lesion: alveolar/bronchiolar tumor, dosed 26 weeks, study length 78 weeks); “negative (inactive)” (rat, strain Charles River CD (Sprague-Dawley), females, inhaled, site: liver, lesion: several types, types named in the paper, dosed 26 weeks, study length 78 weeks). Besides, the carcinogen call by setting is: (rat, strain Charles River CD (Sprague-Dawley), females, inhaled, site: liver, lesion: several types, types named in the paper, dosed 43 weeks, study length 95 weeks) “negative (inactive)”; (rat, strain Charles River CD (Sprague-Dawley), males, inhaled, site: liver, lesion: several types, types named in the paper, dosed 26 weeks, study length 78 weeks) “negative (inactive)”; (rat, strain Charles River CD (Sprague-Dawley), males, inhaled, site: liver, lesion: several types, types named in the paper, dosed 43 weeks, study length 95 weeks) “negative (inactive)”; (rat, strain Fischer 344, females, by gavage, site: any site (literature study), lesion: several types, types named in the paper, dosed 104 weeks, study length 104 weeks) “negative (inactive)”; (rat, strain Fischer 344, males, by gavage, site: any site (literature study), lesion: several types, types named in the paper, dosed 104 weeks, study length 104 weeks) “negative (inactive)”; (rat, strain Sprague-Dawley Spartan, females, in drinking water, site: pituitary gland, lesion: adenoma, dosed 104 weeks, study length 104 weeks) “negative (inactive)”. Also, the carcinogen call is, setting by setting: (rat, strain Sprague-Dawley Spartan, females, inhaled, site: liver, lesion: cholangioma, dosed 78 weeks, study length 104 weeks) “negative (inactive)”; (rat, strain Sprague-Dawley Spartan, males, in drinking water, site: liver, lesion: neoplastic nodule, dosed 104 weeks, study length 104 weeks) “negative (inactive)”; (rat, strain Sprague-Dawley Spartan, males, inhaled, site: liver, lesion: sarcoma, dosed 78 weeks, study length 104 weeks) “negative (inactive)”.

`COc1ccc(N)c(OC)c1`: the TD50 by setting is: (mouse, strain B6C3F1, females, in feed, site: any site (literature study), lesion: several types, types named in the paper, dosed 103 weeks, study length 104 weeks) 986 mg/kg/day (inactive); (mouse, strain B6C3F1, females, in feed, site: liver, lesion: hepatocellular adenoma + hepatocellular carcinoma + neoplastic nodule, dosed 103 weeks, study length 104 weeks) 2790 mg/kg/day; (mouse, strain B6C3F1, females, in feed, site: lung, lesion: alveolar/bronchiolar adenoma + alveolar/bronchiolar carcinoma, dosed 103 weeks, study length 104 weeks) 50600 mg/kg/day; (mouse, strain B6C3F1, males, in feed, site: any site (literature study), lesion: several types, types named in the paper, dosed 103 weeks, study length 104 weeks) 1650 mg/kg/day (inactive); (mouse, strain B6C3F1, males, in feed, site: liver, lesion: hepatocellular adenoma + hepatocellular carcinoma + neoplastic nodule, dosed 103 weeks, study length 104 weeks) 1390 mg/kg/day. Besides, the carcinogen call is, setting by setting: (rat, strain Fischer 344, females, in feed, site: any site (literature study), lesion: several types, types named in the paper, dosed 104 weeks, study length 105 weeks) “negative (inactive)”; (rat, strain Fischer 344, males, in feed, site: any site (literature study), lesion: several types, types named in the paper, dosed 104 weeks, study length 105 weeks) “negative (inactive)”.

Consider `COc1cccc(O)c1O`, for which the TD50 is, setting by setting: (rat, strain F344/DuCrj, males, in feed, site: forestomach, lesion: squamous-cell papilloma, dosed 51 weeks, study length 51 weeks) 425 mg/kg/day; (rat, strain F344/DuCrj, males, in feed, site: stomach, glandular, lesion: adenoma, dosed 51 weeks, study length 51 weeks) 48.7 mg/kg/day.

With `CCCCCCCC/C=C\CCCCCCCC(=O)O`, the carcinogen call was “negative (inactive)” (rat, strain F344/DuCrj, females, in drinking water, site: any site (literature study), lesion: several types, types named in the paper, dosed 108 weeks, study length 108 weeks); “negative (inactive)” (rat, strain F344/DuCrj, females, in drinking water, site: liver, lesion: hyperplastic nodule, dosed 108 weeks, study length 108 weeks); “negative (inactive)” (rat, strain F344/DuCrj, males, in drinking water, site: any site (literature study), lesion: several types, types named in the paper, dosed 108 weeks, study length 108 weeks). The TD50 was 29100 mg/kg/day (inactive) (rat, strain F344/DuCrj, males, in drinking water, site: liver, lesion: hyperplastic nodule, dosed 108 weeks, study length 108 weeks); 39300 mg/kg/day (inactive) (rat, strain F344/DuCrj, males, in drinking water, site: liver, lesion: several types, types named in the paper, dosed 108 weeks, study length 108 weeks); 12600 mg/kg/day (inactive) (rat, strain F344/DuCrj, males, in drinking water, site: pancreas, lesion: insuloma, dosed 108 weeks, study length 108 weeks); 10100 mg/kg/day (inactive) (rat, strain F344/DuCrj, males, in drinking water, site: pancreas, lesion: several types, types named in the paper, dosed 108 weeks, study length 108 weeks).

In the case of `CN(N=O)C(=O)c1ccccc1C(=O)N(C)N=O`, the carcinogen call (rat, strain Wistar, males, by gavage, site: any site (literature study), lesion: several types, types named in the paper, dosed 67 weeks, study length 67 weeks) is “negative (inactive)”.

As for `C/C=C1/C[C@@H](C)[C@@](C)(O)C(=O)OC/C2=C/CN(C)CC[C@@H](OC1=O)C2=O`, the TD50 (rat, strain ACI, males, i.p., site: liver, lesion: liver-cell adenoma, dosed 56 weeks, study length 92 weeks) is 1.7 mg/kg/day.

Turning to `ClCOCCCCOCCl`, where the note is “mouse, strain Ha/ICR, females, i.p., site: abdomen, lesion: sarcoma, dosed 81 weeks, study length 81 weeks”, the carcinogen call was “negative (inactive)”.
